# Experimental data published in patent US11331364B2, “Use for JNK inhibitor molecules for treatment of various diseases” (Xigen Inflammation Ltd., priority 2014, dated 2022).
# Square brackets hold non-standard residues; d marks the D form. Peptide text beside a SMILES is read from it.
# Columns and labels:
# [1] = test system: primary rat lymph-nodes purified T cells; experiment: CD3/CD28-induced IL-2 release in primary rat lymph-nodes purified T cells; format: cell-based; conditions: added 1 h before CD3/CD28 (2 μg/mL); supernatant 24 h
# Method: Control rat were sacrificed and lymph-nodes were harvested. T cells further were purified (using magnetic negative selection) and plated into 96-well plates at 200.000 cells/well. Cells were treated with anti-rat CD3 and anti-rat CD28 antibodies (2 μg/mL). JNK inhibitor with SEQ ID NO: 172 was added to the cultures 1 h before CD3/CD28 treatment and IL-2 release was assessed in supernatant 24 h after treatment.
# Control animal were sacrificed, lymph nodes (LN) were harvested and kept in complete RPMI medium. LN were smashed with complete RPMI on 70 μm filter using a 5 ml piston. A few drops of media were added to keep strainer wet. Cells were centrifuged for 7 min at 450 g and 4° C. Pellet was resuspended in 5 ml fresh medium. Cells were passed again through cell strainer. An aliquot of cells was counted, while cells were centrifuged again 10 min at 1400 rpm and 4° C. Cells were resuspended in MACS buffer (80 μl of MACS buffer per 10^7 cells). 10 μl of anti-rat MHC microbeads were added per 10 million cells, cells were incubated for 15 min at 4°-8° C. Cells were washed with 15 ml MACS buffer and centrifuge for 7 min at 700 g and 4° C. […] Resuspended cells were counted and plated at density of 200000 cells/well in 100 μl of complete medium. […] Cytokines were then measured using standard Elisa kits. Results are expressed as pg/ml of supernatant of the measured cytokine. […]
# [2] = target: T1, hJNK1 (Homo sapiens, UniProt P45983); experiment: AlphaScreen assay, inhibition of JNK1 phosphorylation of c-Jun substrate; format: biochemical; conditions: in comparison to L-TAT-IB1; FIG. 4 (JNK1, JNK2, JNK3 AlphaScreen)
# T1 construct: His; purchased Upstate 14-327
# T1 sequence (P45983 1-384 isoform P45983-2): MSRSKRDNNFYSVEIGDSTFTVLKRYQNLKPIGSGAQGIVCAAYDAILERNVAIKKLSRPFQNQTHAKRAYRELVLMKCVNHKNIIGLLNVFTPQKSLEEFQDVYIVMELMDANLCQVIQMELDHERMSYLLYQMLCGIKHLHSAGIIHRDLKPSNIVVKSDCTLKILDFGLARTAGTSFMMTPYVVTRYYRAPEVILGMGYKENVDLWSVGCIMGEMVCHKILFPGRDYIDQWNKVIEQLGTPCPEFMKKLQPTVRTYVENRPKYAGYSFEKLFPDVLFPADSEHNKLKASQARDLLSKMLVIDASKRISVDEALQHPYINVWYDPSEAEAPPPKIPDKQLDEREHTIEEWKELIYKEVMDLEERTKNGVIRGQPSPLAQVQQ
# Method: In the following a standard operating procedure will be set forth describing how the Inhibitory efficacy of JNK inhibitors according to the present invention was measured. The method allows to measure in vitro, in a non radioactive standardized assay, the ability of a candidate compound to decrease the phosphorylation of the c-Jun specific substrate by JNK. Moreover, it will be illustrated how to determine the inhibitory effect (IC50) and the Ki of a chosen compound for JNK. […] And a person skilled in the art will certainly understand how to adapt the below methods for his specific purposes and needs.
# AlphaScreen Reagent and Plate: • His-JNK1 (ref 14-327, Upstate, 10 μg in 100 μl: concentration: 2.2 μM) 5 nM final • His-JNK2 (ref 14-329, Upstate, 10 μg in 100 μl: concentration: 2 μM) 5 nM final • His-JNK3 (ref 14-501, Upstate, 10 μg in 100 μl: concentration: 1.88 μM) 5 nM final • Anti-Phospho-cJun (ref 06-828, Upstate, lot DAM1503356, concentration: 44.5 μM) 10 nM final • Biotin-cJun (29-67): • sequence: Biotin—[…] […]
# The bioluminescent energy transfer was read on the Fusion Alpha Plate reader (Perkin Elmer). […]
Compound,CD3/CD28-induced IL-2 release [1],inhibitory capacity [2]
"CC(C)C[C@H](NC(=O)[C@H](CC(N)=O)NC(=O)[C@H](CC(C)C)NC(=O)[C@@H](NC(=O)[C@@H](C)NC(=O)[C@@H]1CCCN1C(=O)[C@H](CCCNC(=N)N)NC(=O)[C@@H](CCCCN)NC(=O)[C@@H]1CCCN1C(=O)[C@H](CCCNC(=N)N)NC(=O)[C@@H](CCCNC(=N)N)NC(=O)[C@H](CCCNC(=N)N)NC(=O)[C@H](CCCNC(=N)N)NC(=O)[C@H](CCC(N)=O)NC(=O)[C@@H](CCCNC(=N)N)NC(=O)[C@H](CCCNC(=N)N)NC(=O)[C@H](CCCCN)NC(=O)[C@H](CCCCN)NC(=O)[C@H](N)CCCNC(=N)N)[C@@H](C)O)C(=O)N[C@H](Cc1ccccc1)C(N)=O [SEQ ID NO: 172, rKKRrQRRrRPkRPaTLNLf] (H-[dR]KKR[dR]QRR[dR]RP[dK]RP[dA]TLNL[dF]-NH2; N-terminus assumed)",Dose-dependent inhibition,
"CC(C)C[C@@H](NC(=O)[C@@H](Cc1ccccc1)NC(=O)[C@H]1CCCN1C(=O)[C@@H](CCC(N)=O)NC(=O)[C@H](NC(=O)[C@H]1CCCN1C(=O)[C@@H](CCCNC(=N)N)NC(=O)[C@@H](CO)NC(=O)[C@@H](CCC(N)=O)NC(=O)[C@H](N)CC(=O)O)C(C)C)C(=O)N[C@H](CC(N)=O)C(=O)N[C@H](CC(C)C)C(=O)N[C@@H](C(=O)N[C@@H](C(=O)N1CCC[C@@H]1C(=O)N[C@H](CCCNC(=N)N)C(=O)N[C@H](CCCCN)C(=O)N1CCC[C@@H]1C(=O)N[C@H](CCCNC(=N)N)C(=O)N1CCC[C@@H]1C(=O)N1CCC[C@@H]1C(=O)N[C@H](CCCNC(=N)N)C(=O)N[C@H](CCCNC(=N)N)C(=O)N[C@H](CCCNC(=N)N)C(=O)N[C@H](CCC(N)=O)C(=O)N[C@H](CCCNC(=N)N)C(=O)N[C@H](CCCNC(=N)N)C(=O)N[C@H](CCCCN)C(=O)N[C@H](CCCCN)C(=O)N[C@H](CCCNC(=N)N)C(=O)NCC(N)=O)[C@H](C)O)[C@H](C)O [SEQ ID NO: 197, dqsrpvqpflnlttprkprpprrrqrrkkrg, reference compound] (H-[dD][dQ][dS][dR][dP][dV][dQ][dP][dF][dL][dN][dL][dT][dT][dP][dR][dK][dP][dR][dP][dP][dR][dR][dR][dQ][dR][dR][dK][dK][dR]G-NH2)",,significant decrease in inhibitory capacity
